Assay results: ChEMBL document CHEMBL1201862, “PubChem BioAssay data set” (2004)
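Five concentrations, 48 hours, 96-well plates. GI50 is the concentration that inhibits growth by half.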 Activity calls are given as the source filed them. Cut-off read from the data, not from the text of the source: active = GI50 up to about 1.1 µM and inactive = higher.

Assays:
Test in all cases: DTP human tumour cell line panel, 48 h
NCI-H460 = tested on: NCI-H460
T47D = tested on: T47D
KM12 = tested on: KM12
HT-29 = tested on: HT-29
HCC 2998 = tested on: HCC 2998
ACHN = tested on: ACHN
PC-3 = tested on: PC-3
SK-MEL-28 = tested on: SK-MEL-28
MDA-N = tested on: MDA-N
HCT-116 = tested on: HCT-116
MDA-MB-231 = tested on: MDA-MB-231
CCRF-CEM = tested on: CCRF-CEM
CAKI-1 = tested on: CAKI-1
OVCAR-5 = tested on: OVCAR-5
786-0 = tested on: 786-0
EKVX = tested on: EKVX
SF-539 = tested on: SF-539
Malme-3M = tested on: Malme-3M

Measured: GI50

CCOC(=O)C(COS(C)(=O)=O)(COS(C)(=O)=O)C(=O)OCC
inactive: NCI-H460 > 100 µM | T47D > 100 µM | KM12 > 100 µM | HT-29 > 100 µM | HCC 2998 > 100 µM | ACHN > 100 µM | PC-3 > 100 µM | SK-MEL-28 > 100 µM | MDA-N > 100 µM | HCT-116 > 100 µM | MDA-MB-231 > 100 µM | CCRF-CEM > 100 µM

O=C(/C=C/c1ccc2c(c1)OCO2)CC(=O)/C=C/c1ccc2c(c1)OCO2
inactive: NCI-H460 82.8 µM | T47D > 100 µM | KM12 3.56 µM | HT-29 > 100 µM | HCC 2998 > 100 µM | ACHN 84.3 µM | PC-3 86.3 µM | CAKI-1 > 100 µM | SK-MEL-28 > 10 µM | OVCAR-5 > 100 µM | MDA-N 40 µM | 786-0 49.8 µM | EKVX 64 µM | SF-539 76.7 µM | Malme-3M > 100 µM | HCT-116 37.5 µM | MDA-MB-231 34.6 µM | CCRF-CEM 35.6 µM

Cc1c2c(n(CCc3ccc(Cl)cc3)c1C)NN=C(C#N)S2(=O)=O
inactive: NCI-H460 > 100 µM | T47D > 100 µM | KM12 > 100 µM | HT-29 > 100 µM | HCC 2998 > 100 µM | ACHN > 100 µM | PC-3 > 100 µM | SK-MEL-28 > 100 µM | OVCAR-5 > 100 µM | MDA-N 64.7 µM | 786-0 > 100 µM | EKVX > 100 µM | SF-539 > 100 µM | Malme-3M 51.8 µM | HCT-116 > 100 µM | MDA-MB-231 > 100 µM

N/N=C(\N)SCc1ccc(N=C=S)cc1
inactive: NCI-H460 > 100 µM | T47D > 100 µM | KM12 > 100 µM | HT-29 > 100 µM | HCC 2998 > 100 µM | ACHN > 100 µM | PC-3 > 100 µM | CAKI-1 > 100 µM | SK-MEL-28 > 100 µM | OVCAR-5 > 100 µM | MDA-N > 100 µM | 786-0 > 100 µM | EKVX > 100 µM | SF-539 > 100 µM | Malme-3M > 100 µM | HCT-116 > 100 µM | MDA-MB-231 > 100 µM | CCRF-CEM > 100 µM

CNC(=O)CCNC(=O)CCC(=O)N(C)C
inactive: NCI-H460 > 100 µM | T47D > 100 µM | KM12 > 100 µM | HT-29 > 100 µM | HCC 2998 > 100 µM | ACHN > 100 µM | PC-3 > 100 µM | CAKI-1 > 100 µM | SK-MEL-28 > 100 µM | OVCAR-5 > 100 µM | MDA-N > 100 µM | 786-0 > 100 µM | SF-539 > 100 µM | Malme-3M 15.7 µM | HCT-116 > 100 µM | MDA-MB-231 > 100 µM

Cc1c(/C=N/N(C)C)oc2c1cc(O)c1ncccc12
inactive: NCI-H460 4.5 µM | KM12 18.2 µM | HT-29 41.2 µM | HCC 2998 14 µM | ACHN 7.89 µM | CAKI-1 4.03 µM | SK-MEL-28 22.5 µM | OVCAR-5 7.24 µM | 786-0 6.28 µM | EKVX 2.11 µM | Malme-3M 11.2 µM | HCT-116 2.99 µM | CCRF-CEM 1.27 µM

COC(=O)c1ccccc1NC(=O)C(=O)CC(=O)CC(c1ccccc1)c1c(O)c2ccccc2oc1=O (configuration not stated)
inactive: NCI-H460 > 100 µM | KM12 > 100 µM | HT-29 > 100 µM | HCC 2998 > 100 µM | ACHN > 100 µM | CAKI-1 > 100 µM | SK-MEL-28 > 100 µM | OVCAR-5 > 100 µM | 786-0 > 100 µM | EKVX > 100 µM | SF-539 > 100 µM | Malme-3M > 100 µM | HCT-116 > 100 µM | CCRF-CEM > 100 µM
